Test results published in paper PMC12419465, “Photoresponsive molecular tweezers modulate Taspase 1 activity” (RSC Chemical Biology, 2025).
Like-named read-outs stand apart in the source and are kept apart here.

Columns and labels:
wildtype Taspase 1 = target: T1, wildtype Taspase 1 (Homo sapiens, UniProt Q9H6P5); experiment: Recombinant cleavage assay with GST-MLL2700–2850-GFP-His substrate; assay type: biochemical; settings: for IC50: ligand conc. 10 - 100 µM, 200 nM Taspase 1, 5 µM substrate, n = 3, read-out: IC50 TW (recombinant cleavage, full-length protein); for Difference in inhibitory activity between E and Z isomers (times greater potency of E isomer): particularly at 50 μM
T1 sequence (Q9H6P5 1-233 limits assumed): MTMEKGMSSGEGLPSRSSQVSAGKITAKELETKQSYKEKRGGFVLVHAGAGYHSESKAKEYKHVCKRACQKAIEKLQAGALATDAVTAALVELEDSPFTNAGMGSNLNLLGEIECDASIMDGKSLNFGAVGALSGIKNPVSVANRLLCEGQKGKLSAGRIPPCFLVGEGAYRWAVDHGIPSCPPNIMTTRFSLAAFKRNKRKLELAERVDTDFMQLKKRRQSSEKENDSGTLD
T1 sequence (Q9H6P5 234-420 limits assumed): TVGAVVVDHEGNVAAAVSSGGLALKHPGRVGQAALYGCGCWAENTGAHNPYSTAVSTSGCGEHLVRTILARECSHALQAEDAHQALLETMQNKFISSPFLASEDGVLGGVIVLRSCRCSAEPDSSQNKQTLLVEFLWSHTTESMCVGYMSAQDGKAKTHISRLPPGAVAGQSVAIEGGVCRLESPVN
Method: The recombinant cleavage assay employing the recombinant fusion protein GST-MLL2700–2850-GFP-His, which contains the CS2 cleavage site of the Mixed-lineage leukemia (MLL) protein as a substrate for Taspase 1, was performed as described.[9,10]
Given that Taspase 1's active site is positioned directly at the base of the loop harboring the bipartite NLS (Fig. 1A, and Fig. S1), it is reasonable to expect that our photoswitchable tweezer constructs, which recognize this signal, might also influence proteolytic activity - similar to the inhibition observed with our “first-generation” multivalent ligands.[10] In principle the presence of a sterically demanding artificial ligand may hinder or even completely block substrate binding and subsequent cleavage. To assess this, we employed a well-established in vitro cleavage assay using a recombinant, truncated fusion protein harboring the second cleavage site (CS2) of the Mixed Lineage Leukemia 1 (MLL1) protein, a bona fide Taspase 1 substrate.[39] In this assay, the cleaved and uncleaved substrate fractions of the GST-MLL2700–2850-GFP-His substrate were separated on a Coomassie-stained gel, and signal intensities of the different cleavage bands were quantified (Fig. 7, Fig. S8, and Fig. S9). The addition of recombinant, proteolytically active Taspase 1 (200 nM) led to efficient substrate cleavage, which was inhibited by all photoswitchable tweezer constructs in a concentration-dependent manner. IC50 values for the full series of switchable tweezer constructs ranged from 20 to 50 μM, with measurements taken separately for both E and Z isomers Fig. (S9).
Fig. 7 Switchable tweezer constructs interfere with Taspase 1 proteolytic activity. Cleavage assay utilizing the cleavage site CS2 from the natural substrate MLL (GST-MLL2700–2850-GFP-His) and active wildtype Taspase 1. Inhibition of proteolysis was evaluated by the relative amount of uncleaved substrate. Briefly, 5 μM recombinant substrate were incubated with 200 nM wildtype Taspase 1-His and increasing concentrations of TWAAP0-4 (10 - 100 μM), pre-irradiated with either UV light (365 nm, violet), or green light (520 nm, green), or solvent only. Proteolytic activity in solvent-treated samples was set to 100%, and data from TWAAP-treated samples were normalized accordingly. IC50 values were determined by densitometric quantification of the cleavage bands from the gels shown in Fig. S9, followed by nonlinear curve fitting. These values were also used to generate the summary bar plots shown on the right. Data are shown as the mean ± SD from three independent experiments. Composed with https://BioRender.com.
Figure S8. Photoswitchable TWAAP constructs interfere with Taspase 1’s proteolytic activity.
Cleavage assay utilizing the cleavage site CS2 from the natural substrate MLL (GST -MLL2700-2850-GFP-His, 70 kDa) and active wildtype Taspase 1. Inhibition of proteolysis was evaluated by the relative amount of uncleaved in relation to cleaved substrate (50 kDa and 20 kDa, respectively). Briefly, 5 µM recombinant substrate were incubated with 200 nM wildtype Taspase 1-His and increasing concentrations (10 - 100 µM) of indicated TWAAP irradiated with UV (365 nm, left gel panels) or green light (520 nm, right gel panels). Solvent-treated samples (referred to as untreated, un.) served as reference, and as additional controls, Taspase 1 (-T) was omitted or only Taspase 1 (TASP1) was applied. Representative images of three independent experiments are shown. Composed with […]
Figure S9. Photoswitchable TWAAB constructs interfere with Taspase 1’s proteolytic activity. Cleavage assay utilizing the cleavage site CS2 from the natural substrate MLL (GST -MLL2700-2850-GFP-His, 70 kDa) and active wildtype Taspase 1. Inhibition of proteolysis was evaluated by the relative amount of uncleaved in relation to cleaved substrate (50 kDa and 20 kDa, respectively).
Briefly, 5 µM recombinant substrate were incubated with 200 nM wildtype Taspase 1-His and […]

[1] = target: T2, Taspase 1/Importin α interaction (Homo sapiens, UniProt Q9H6P5, D233A/T234A); experiment: Recombinant pull-down assay, GST-Importin α bait and Taspase 1-His prey; assay type: biochemical; settings: percentage of the PPI of Importin α with full-length Taspase 1, ligand conc. 25 µM, n = 3
T2 construct: with full-length Taspase 1 in the recombinant pull-down assay
T2 sequence (Q9H6P5 1-420 D233A/T234A): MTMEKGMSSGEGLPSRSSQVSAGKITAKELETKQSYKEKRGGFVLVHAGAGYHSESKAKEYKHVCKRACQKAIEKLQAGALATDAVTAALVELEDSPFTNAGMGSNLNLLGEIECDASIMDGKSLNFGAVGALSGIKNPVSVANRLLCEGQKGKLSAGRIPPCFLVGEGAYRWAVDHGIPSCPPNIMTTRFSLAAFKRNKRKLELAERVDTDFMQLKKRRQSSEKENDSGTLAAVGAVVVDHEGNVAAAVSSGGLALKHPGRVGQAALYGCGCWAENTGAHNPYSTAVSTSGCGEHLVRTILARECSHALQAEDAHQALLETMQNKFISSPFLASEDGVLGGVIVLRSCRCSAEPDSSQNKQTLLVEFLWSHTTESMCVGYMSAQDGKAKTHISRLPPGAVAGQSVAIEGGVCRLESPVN
Method: Pull-down assay: recombinant pull-down assays were performed as described.[9,10] For details on the assay workflow, see SI (Fig. S6).
Pull-down assays were conducted with 100 μM of TWAAP3 in either its Z or E isomer form or left untreated (un.), omitting the ligand. […] To achieve the respective Z or E isomer, TWAAP3 was irradiated with UV light (365 nm) or green light (520 nm) prior to incubation. All samples contained 3% DMSO during ligand incubation. Negative controls included samples lacking either GST-Importin α (-Iα) or Taspase 1 (-T). *, p < 0.05, t-test. Composed with https://BioRender.com.
Figure S6. Controls for pull-down assays with TWAAP constructs. A. Schematic assay
representation: GST -Importin α was immobilized on a glutathione -coated Sepharose matrix in a spin
column. After GST binding, Taspase 1-His pre-incubated with tweezer constructs was added. […]

O=P(O)(O)Oc1c2c(c(OP(=O)(O)OCCn3cc(-c4ccc(N=Nc5ccc(-c6cn(CCOP(=O)(O)Oc7c8c(c(OP(=O)(O)O)c9c7C7CC9c9cc%10c(cc97)C7CC%10c9ccccc97)C7CC8c8cc9c(cc87)C7CC9c8ccccc87)nn6)cc5)cc4)nn3)c3c1C1CC3c3cc4c(cc31)C1CC4c3ccccc31)C1CC2c2cc3c(cc21)C1CC3c2ccccc21 [TWAB1] was tested, and the IC50 (wildtype Taspase 1; E isomer) was 22.3 µM, the IC50 (wildtype Taspase 1; Z isomer) was 17.9 µM and the “Difference in inhibitory activity between E and Z isomers (times greater potency of E isomer)” value (wildtype Taspase 1) was “no difference”.
Cc1nn(-c2ccc(C#Cc3ccc(-c4cn(CCOP(=O)(O)Oc5c6c(c(OP(=O)(O)O)c7c5C5CC7c7cc8c(cc75)C5CC8c7ccccc75)C5CC6c6cc7c(cc65)C5CC7c6ccccc65)nn4)cc3)cc2)c(C)c1N=Nc1ccc(C#Cc2ccc(-c3cn(CCOP(=O)(O)Oc4c5c(c(OP(=O)(O)O)c6c4C4CC6c6cc7c(cc64)C4CC7c6ccccc64)C4CC5c5cc6c(cc54)C4CC6c5ccccc54)nn3)cc2)cc1 [TWAAP4] was tested, and the IC50 (wildtype Taspase 1; E isomer) was 24.7 µM, the IC50 (wildtype Taspase 1; Z isomer) was 37.9 µM and the “Difference in inhibitory activity between E and Z isomers (times greater potency of E isomer)” value (wildtype Taspase 1) was 1.5–1.7 times.
With Cc1nn(-c2ccc(-c3cn(CCOP(=O)(O)Oc4c5c(c(OP(=O)(O)O)c6c4C4CC6c6cc7c(cc64)C4CC7c6ccccc64)C4CC5c5cc6c(cc54)C4CC6c5ccccc54)nn3)cc2)c(C)c1N=Nc1ccc(-c2ccc(-c3cn(CCOP(=O)(O)Oc4c5c(c(OP(=O)(O)O)c6c4C4CC6c6cc7c(cc64)C4CC7c6ccccc64)C4CC5c5cc6c(cc54)C4CC6c5ccccc54)nn3)cc2)cc1 [TWAAP3] the “PPI TW (pull-down, full-length protein)” value ([1]; E isomer) was 90%, the “PPI TW (pull-down, full-length protein)” value ([1]; Z isomer) was 60% and the IC50 (wildtype Taspase 1; E isomer) was 49.4 µM. For the same compound, the IC50 (wildtype Taspase 1; Z isomer) was 41.9 µM and the “Difference in inhibitory activity between E and Z isomers (times greater potency of E isomer)” value (wildtype Taspase 1) was “no difference”.
Cc1nn(-c2ccc(-n3cc(CCOP(=O)(O)Oc4c5c(c(OP(=O)(O)O)c6c4C4CC6c6cc7c(cc64)C4CC7c6ccccc64)C4CC5c5cc6c(cc54)C4CC6c5ccccc54)nn3)cc2)c(C)c1N=Nc1ccc(-n2cc(CCOP(=O)(O)Oc3c4c(c(OP(=O)(O)O)c5c3C3CC5c5cc6c(cc53)C3CC6c5ccccc53)C3CC4c4cc5c(cc43)C3CC5c4ccccc43)nn2)cc1 [TWAAP0] was tested, and the IC50 (wildtype Taspase 1; E isomer) was 25.9 µM, the IC50 (wildtype Taspase 1; Z isomer) was 44.6 µM and the “Difference in inhibitory activity between E and Z isomers (times greater potency of E isomer)” value (wildtype Taspase 1) was 1.5–1.7 times.
With Cc1nn(Cc2cn(CCOP(=O)(O)Oc3c4c(c(OP(=O)(O)O)c5c3C3CC5c5cc6c(cc53)C3CC6c5ccccc53)C3CC4c4cc5c(cc43)C3CC5c4ccccc43)nn2)c(C)c1N=Nc1ccc(-c2cn(CCOP(=O)(O)Oc3c4c(c(OP(=O)(O)O)c5c3C3CC5c5cc6c(cc53)C3CC6c5ccccc53)C3CC4c4cc5c(cc43)C3CC5c4ccccc43)nn2)cc1 [TWAAP2] the IC50 (wildtype Taspase 1; E isomer) was 17.5 µM, the IC50 (wildtype Taspase 1; Z isomer) was 25.4 µM and the “Difference in inhibitory activity between E and Z isomers (times greater potency of E isomer)” value (wildtype Taspase 1) was “no difference”.
